Here are results for four molecules from patent publication US20110207926A1, “NOVEL DIHYDROTRIAZINE DERIVATIVE” (HAMARI CHEMICALS, LTD., priority 2008, published 2011).

Read-outs that look alike come from different tables or passages of the source.

One series has as its system S. aureus ATCC 6538. Briefly: Bactericidal activity test (MBC measurement). The format is cell-based, Staphylococcus aureus. Conditions: Staphylococcus aureus, read-out: MBC. The protocol: (§1) Each strain was cultured in Trypticase Soy agar medium for 18 to 20 hr, suspended in 0.1% peptone saline, and prepared to OD 600 nm, 1.0 McFarland. The suspension was further diluted with 0.1% peptone saline to give a test bacteria solution (targeted value; 2×10^7 CFU/mL).
(§2) At 0.5, 1 and 3 min from the start of the reaction, a part of the reaction mixture was sampled and mixed with an equal amount of a neutralizing agent (10% Tween 80, 3% lecithin/aqueous solution) to terminate the bactericidal reaction. The reaction mixture was inoculated to a 96 well microplate dispensed with 180 μL of Tripticase Soy liquid medium in advance, and statically cultured at 37° C. for 20 to 24 hr. Thereafter, the presence or absence of growth was visually evaluated, and the minimum concentration at which growth was not observed was taken as the minimal bactericidal concentration (MBC value) of each action time. The numerical values in the Tables show MBC, the unit is μg/mL, S. aureus means Staphylococcus aureus, MRSA means methicillin-resistant Staphylococcus aureus, E. coli means Escherichia coli, and P. aeruginosa means Pseudomonas aeruginosa.

The test system of the next series is E. coli ATCC 25922. The series can be described thus: Bactericidal activity test (MBC measurement). Conditions: Escherichia coli, read-out: MBC. It counts as cell-based, Escherichia coli. How it is done:
as §1, §2

The test system of the next series is MRSA ATCC 33591. Briefly: Bactericidal activity test (MBC measurement). The format is cell-based, methicillin-resistant Staphylococcus aureus. Conditions: Staphylococcus aureus, read-out: MBC. How it is done:
as §1, §2

The subject of a further series is P. aeruginosa PAO-1. The series can be described thus: Bactericidal activity test (MBC measurement). The format is cell-based, Pseudomonas aeruginosa. Conditions: Pseudomonas aeruginosa, read-out: MBC. The protocol: as §1, §2
The subject of the next series is P. aeruginosa ATCC 27853. Briefly: Bactericidal activity test (MBC measurement). The format is cell-based, Pseudomonas aeruginosa. The settings on record: Pseudomonas aeruginosa, read-out: MBC. How it is done: as §1, §2
The nature of series [1]: Skin sensitivity test, LLNA-BrdU method (lymph node weight). It counts as in vivo. The settings on record: 5 w/v % in acetone/olive oil 4:1, transdermal to auricle once a day for 3 days, mice. How it is done: For application of an external bactericidal/disinfectant agent to the skin, the sensitivity (allergenicity) is desirably as small as possible. […] The sensitivity was evaluated by a Local lymph node assay (LLNA) method using Bromodeoxyuridine (BrdU). In this test, measurement of the amount of BrdU uptaken by the lymph node using an ELISA kit was not performed, and the evaluation was based solely on the weight increase of the lymph node.
8-Week-old female CBA/JN Crlj mice were grouped (3 per group) according to the adequate strafication method based on the body weight (about 20 g) on the first day of administration. A test substance was prepared to 5 w/v % for each test substance by using a mixed solution of acetone and olive oil (v/v=4:1, A00). This was repeatedly administered transdermally to the auricle of the mice at 25 μL/auricle (50 for both auricles) once a day for 3 days. Two days after the final administration, BrdU 10 mg/mL (0.5 mL/mouse) was intraperitoneally administered. Three days after the final transdermal administration (next day of BrdU administration), carbon dioxide was given by inhalation to a comfortable death, and the auricle lymph node was isolated and the weight thereof was measured.

Series [2] is described as follows: Water solubility test (Japanese Pharmacopoeia solubility test method). It counts as physicochemical. The settings on record: 20±5° C., dissolution in 30 min. How it is done:
According to the Japanese Pharmacopoeia solubility test method, the compounds of Examples 1 and 7 of the present invention and the corresponding N-methyl unsubstituted compounds were examined for water solubility. To be specific, a test substance was powderized, placed in water and the mixture was vigorously shaken for 30 sec every 5 min at 20±5° C. The solubility was evaluated based on the degree of dissolution in 30 min by reference to the following Table 9.

[3] abbreviates: ATCC6538, 0.5 min, S. aureus ATCC 6538, action time 0.5 min.
The mark [4] stands for this setting: ATCC25922, 0.5 min, E. coli ATCC 25922, action time 0.5 min.
[5] abbreviates: 0.5 min, MRSA ATCC 33591, action time 0.5 min.
[6] abbreviates: PAO1, 0.5 min, P. aeruginosa PAO-1, action time 0.5 min.
Where [7] appears, read: ATCC27853, 0.5 min, P. aeruginosa ATCC 27853, action time 0.5 min.

By MBC is commonly meant the smallest concentration meeting the test's criterion for killing. As for `CCCCCCCCN(C)C(=N)/N=C(\N)NCc1ccc(Cl)cc1.Cl` [Example 27, N^5-octyl-N^5-methyl-N^1-(4-chlorobenzyl)biguanide hydrochloride], the MBC in the series with S. aureus ATCC 6538 (setting [3]) is 50 µg/mL; with S. aureus ATCC 6538 (ATCC6538, 1 min, S. aureus ATCC 6538, action time 1 min) it was 25 µg/mL; in the series with S. aureus ATCC 6538 (ATCC6538, 0.05 h, S. aureus ATCC 6538, action time 3 min), 25 µg/mL; with E. coli ATCC 25922 (setting [4]), 25 µg/mL; in the series with E. coli ATCC 25922 (ATCC25922, 1 min, E. coli ATCC 25922, action time 1 min) it was 6.25 µg/mL; in the series on E. coli ATCC 25922 (ATCC25922, 0.05 h, E. coli ATCC 25922, action time 3 min) it was 6.25 µg/mL. The MBC in the series with MRSA ATCC 33591 (setting [5]) came out at 50 µg/mL; with MRSA ATCC 33591 (1 min, MRSA ATCC 33591, action time 1 min), 25 µg/mL; with MRSA ATCC 33591 (0.05 h, MRSA ATCC 33591, action time 3 min), 25 µg/mL; in the series on P. aeruginosa PAO-1 (setting [6]), 12.5 µg/mL; in the series with P. aeruginosa PAO-1 (PAO1, 1 min, P. aeruginosa PAO-1, action time 1 min), 12.5 µg/mL; in the series on P. aeruginosa PAO-1 (PAO1, 0.05 h, P. aeruginosa PAO-1, action time 3 min), 12.5 µg/mL. The MBC in the series with P. aeruginosa ATCC 27853 (setting [7]) came to 12.5 µg/mL; with P. aeruginosa ATCC 27853 (ATCC27853, 1 min, P. aeruginosa ATCC 27853, action time 1 min) it was 12.5 µg/mL; in the series with P. aeruginosa ATCC 27853 (ATCC27853, 0.05 h, P. aeruginosa ATCC 27853, action time 3 min), 6.25 µg/mL. For the same molecule, the “SI value (Stimulation index, lymph node weight ratio to solvent group)” value in series [1] worked out at 2.4.
With `CCCCCCCCN(C)C1=NC(C)(C)NC(NCc2ccc(C)cc2)=N1` [Example 7, N^4-octyl-N^4-methyl-1,6-dihydro-6,6-dimethyl-N^2-(4-methylbenzyl)-1,3,5-triazine-2,4-diamine acetate], the “water (mL) to dissolve 1 g” value in series [2] worked out at 0.9 mL. For the same molecule, the “evaluation (water solubility)” value in series [2] (criteria of Table 9) was “very soluble (less than 1 mL)”. In series [1], the “SI value (Stimulation index, lymph node weight ratio to solvent group)” value is given as 2.6.
With `CCCCCCCCNC1=NC(C)(C)NC(N(C)Cc2ccccc2)=N1` [Example 5, N^4-octyl-1,6-dihydro-6,6-dimethyl-N^2-benzyl-N^2-methyl-1,3,5-triazine-2,4-diamine acetate], the MBC in the series with S. aureus ATCC 6538 (setting [3]) is 200 µg/mL; in the series on E. coli ATCC 25922 (setting [4]) it was 25 µg/mL; with MRSA ATCC 33591 (setting [5]), 50 µg/mL; with P. aeruginosa PAO-1 (setting [6]) it was 25 µg/mL; with P. aeruginosa ATCC 27853 (setting [7]), 12.5 µg/mL. In addition, in series [1], the “SI value (Stimulation index, lymph node weight ratio to solvent group)” value turned out to be 0.9.
As to `CCCCCCCCNC1=NC(C)(C)N=C(NCc2ccc(C)cc2)N1` [Ref. Ex. 5, 4-octylamino-1,6-dihydro-6,6-dimethyl-2-(4-methylbenzylamino-1,3,5-triazine gluconate, reference compound], the “SI value (Stimulation index, lymph node weight ratio to solvent group)” value in series [1] came to 4.4.
